# In patent US11951167B2, “Targeted liposomes” (GEORGETOWN UNIVERSITY, priority 2012, dated 2024):
# Tests used:
# KMS-11 cells [1] = experiment: Cell viability, MEL or scL-MEL combined with scL-p53; assay type: cell-based; settings: Homo sapiens, scL-p53 DNA dose 0.2 ug/4×10^5 cells in the combination
# Protocol: Cells (4×10^5 per tube) were transfected with different scL/MEL complexes containing increasing doses of MEL. The scL-p53 was prepared as previously described (U.S. Pat. No. 7,780,822). The DNA dose used for all transfections was 0.2 ug/4×10^5 cells. […] The IC20 was used to allow detection of an additive or synergistic effect of the two treatments. The KMS-11 cells were transfect with Free (unencapsulated) MEL alone, scL-MEL alone, or the combination of Free (unencapsulated) or scL encapsulated MEL plus scL-p53 (FIG. 37).
# KMS-11 cells [2] = experiment: Cell viability by Trypan Blue counting, MEL formulations; assay type: cell-based; settings: Homo sapiens, KMS-11, 48 h
# Protocol: The size of the scL-MEL nanocomplex was 45 and 57 nm, respectively.
# For these in vitro cell survival studies, the human multiple myeloma cell line KMS-11 was used. These are non-adherent cells and grow in suspension. 4×10^5 cells in 2.6 ml of serum free media were incubated in a sterile 50 ml centrifuge tube with 400 ul of the scL-MEL (at either ratio) or unencapsulated MEL for one hour. Following this incubation, the medium was supplemented with fetal bovine serum to a final concentration of 10% (0.3 ml/tube). After incubation for an additional 47 h, cell viability was determined by Trypan Blue counting of the cells. To accomplish this, one part trypan blue solution is mixed with 1 part cell suspension (1:1 dilution) in a 2 mL eppendorf tube (e.g. 200 μL trypan blue is mixed with 200 μL cell suspension). Using a hemacytometer and a microscope the number of viable cells (unstained) and dead cells (stained) are counted. The average number of cells per 0.1 mm^3 is calculated and the number of cells per mL determined. The percent of viable cells is calculated as follows: Viable Cells %=(Number of viable cells/Number of Cells)*100
# This complex was subsequently lyophilized and the samples stored in a desiccator at 2-8° C. After one week of storage the lyophilized scL-Mel complex was reconstituted with endotoxin free water and used to transfect KMS-11 cells as described above. […]
# Hep G2 cells = experiment: XTT cell viability, IH formulations; assay type: cell-based, human
# Protocol: (§1) After 24 hours, the media was replaced with serum-free medium, overlaid with 100 μL of increasing concentrations of either scL-IH nanocomplex, prepared as described above in Example 26, unliganded nanocomplex (L-IH), free IH or LipA only in serum-free medium. The cells were, incubated for 5 hours and then supplemented with FBS. […] The IC50 was interpolated from the graph of the log of drug concentration versus the fraction of surviving cells.
# PANC-1 cells = experiment: XTT cell viability, IH formulations; assay type: cell-based, human
# Protocol: as §1
# HT-29 xenograft tumors = experiment: Anti-tumor efficacy in subcutaneous colon xenografts; assay type: in vivo, athymic nude mice
# Protocol: In our initial in vivo experiment, we assessed the anti-tumor efficacy of various molar ratios of liposome to IH. Tumors of human colon tumor cell line HT-29 were induced in female athymic nude mice (5-10 animals/group) by the subcutaneous injection of 3.12×10^5 cells/site/mouse suspended in Matrigel® collagen basement solution. When the tumors reached ˜100 mm^3 treatment was initiated. […] Groups of animals were also treated with Free IH, scL without IH, the nanocomplex without the targeting moiety (Lip-IH), as well as a group of untreated mice. The mice were IV injected twice weekly to a total of 15 injections. […] Thus, in the remainder of the studies the optimal ratio of 1:1 (Liposome:IH) was used in preparation of the scL-IH nanocomplex. […] Here also the mice received a total of 15 intravenous injections.
# HT-29 cells = experiment: XTT cell viability, IH formulations; assay type: cell-based; settings: Homo sapiens, 24 h
# Protocol: as §1
# topoisomerase I = biological target: T1, topoisomerase I (Homo sapiens, UniProt P11387); settings: cited from earlier work
# T1 sequence (P11387 1-765): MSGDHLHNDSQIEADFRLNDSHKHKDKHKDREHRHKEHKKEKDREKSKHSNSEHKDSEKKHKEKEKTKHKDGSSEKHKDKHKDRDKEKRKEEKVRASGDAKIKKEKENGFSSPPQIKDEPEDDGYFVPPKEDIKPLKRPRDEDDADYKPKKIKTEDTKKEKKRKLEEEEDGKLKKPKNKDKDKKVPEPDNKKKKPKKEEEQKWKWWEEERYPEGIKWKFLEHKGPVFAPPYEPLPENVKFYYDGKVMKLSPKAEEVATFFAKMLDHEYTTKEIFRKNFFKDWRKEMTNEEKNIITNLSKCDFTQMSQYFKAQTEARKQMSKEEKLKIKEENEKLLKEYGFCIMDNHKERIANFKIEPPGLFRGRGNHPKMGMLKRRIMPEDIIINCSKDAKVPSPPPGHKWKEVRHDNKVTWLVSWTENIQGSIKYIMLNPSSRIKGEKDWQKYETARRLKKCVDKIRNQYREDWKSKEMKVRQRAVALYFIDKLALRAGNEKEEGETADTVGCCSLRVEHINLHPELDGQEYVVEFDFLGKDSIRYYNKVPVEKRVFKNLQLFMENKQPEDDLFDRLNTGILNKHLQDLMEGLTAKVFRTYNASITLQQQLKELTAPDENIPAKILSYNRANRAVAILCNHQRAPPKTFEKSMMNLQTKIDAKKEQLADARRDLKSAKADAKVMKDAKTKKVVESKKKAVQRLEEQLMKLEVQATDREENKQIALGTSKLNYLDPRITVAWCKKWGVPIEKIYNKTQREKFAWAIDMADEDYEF
compound,measurement,setting,value
"N[C@@H](Cc1ccc(N(CCCl)CCCl)cc1)C(=O)O [MEL, melphalan]",IC50,KMS-11 cells [1],10.9 µM
same,IC50,KMS-11 cells [2],17.6 µM
"CCc1c2c(nc3ccc(OC(=O)N4CCC(N5CCCCC5)CC4)cc13)-c1cc3c(c(=O)n1C2)COC(=O)[C@]3(O)CC [IH, Irinotecan]",cell kill at the low doses tested,Hep G2 cells,no effect
same,cell kill at the low doses tested,PANC-1 cells,no effect
same,tumor growth,"HT-29 xenograft tumors; first experiment, IH 10 mg/kg i.v. twice weekly, 15 injections, Liposome:IH 1:1 for the complex",minimal effect on tumor growth
same,tumor growth,"HT-29 xenograft tumors; second experiment (fresh vs lyophilized), IH 10 mg/kg, Liposome:IH 1:1, 15 injections",only minimal effect
same,IC50,HT-29 cells,> 10 µM
"CCc1c2c(nc3ccc(O)cc13)-c1cc3c(c(=O)n1C2)COC(=O)[C@]3(O)CC [SN-38, 7-ethyl-10-hydroxy-camptothecin]",potency relative to parent compound irinotecan,topoisomerase I,One thousand-fold more potent
